# Laboratory results reported in ChEMBL document CHEMBL6177931, “Exploring diverse frontiers: Advancements of bioactive 4-aminoquinoline-based molecular hybrids in targeted therapeutics and beyond” (Eur J Med Chem, 2024).
# pIC50: −log10 of the molar value.
# Experiments:
# Staphylococcus aureus [1] = experiment: Antibacterial activity against Staphylococcus aureus MTCC 96 by agar streak dilution method; type: functional
# Bacillus subtilis [2] = experiment: Antibacterial activity against Bacillus subtilis MTCC 619 by agar streak dilution method; type: functional
# Escherichia coli [3] = experiment: Antibacterial activity against Escherichia coli MTCC 739 by agar streak dilution method; type: functional
# Pseudomonas aeruginosa [4] = experiment: Antibacterial activity against Pseudomonas aeruginosa MTCC 741 by agar streak dilution method; type: functional
# MDA-MB-231 = experiment: Growth inhibition of human MDA-MB-231 cells incubated for 48 hrs by SRB assay; type: functional
# MDA-MB-468 = experiment: Growth inhibition of human MDA-MB-468 cells incubated for 48 hrs by SRB assay; type: functional
# MCF7 [5] = experiment: Growth inhibition of human MCF7 cells incubated for 48 hrs by SRB assay; type: functional
# [6] = Growth inhibition of human 184B5 cells incubated for 48 hrs by SRB assay; type: toxicity, cell-based
# [7] = Growth inhibition of human MCF-10A cells incubated for 48 hrs by SRB assay; type: toxicity, cell-based
# HepG2 [8] = experiment: Antiproliferative activity against human HepG2 cells assessed as reduction in cell proliferation incubated for 24 hrs by MTT assay; type: functional, cell-based; details: HepG2, 24 h
# SMMC-7721 = experiment: Antiproliferative activity against human SMMC-7721 cells assessed as reduction in cell proliferation incubated for 24 hrs by MTT assay; type: functional, cell-based; details: SMMC-7721, 24 h
# Bacillus subtilis [9] = experiment: Antibacterial activity against Bacillus subtilis ATCC19659; type: functional
# Enterococcus faecalis = experiment: Antibacterial activity against Enterococcus faecalis ATCC13047; type: functional
# [10] = system: Staphylococcus epidermidis; experiment: Antibacterial activity against Staphylococcus epidermidis; type: functional
# Staphylococcus aureus [11] = experiment: Antibacterial activity against Staphylococcus aureus; type: functional
# [12] = system: Mycolicibacterium smegmatis; experiment: Antibacterial activity against Mycobacterium smegmatis; type: functional
# Proteus vulgaris = experiment: Antibacterial activity against Proteus vulgaris ATCC6380; type: functional
# Klebsiella oxytoca = experiment: Antibacterial activity against Klebsiella oxytoca ATCC8724; type: functional
# Pseudomonas aeruginosa [13] = experiment: Antibacterial activity against Pseudomonas aeruginosa; type: functional
# Pseudomonas mevalonii = experiment: Antibacterial activity against Pseudomonas mevalonii; type: functional; details: Pseudomonas sp. 'mevalonii'
# Escherichia coli [14] = experiment: Antibacterial activity against Escherichia coli ATCC25922; type: functional
# [15] = target: Cholinesterases; ACHE & BCHE (Homo sapiens) (UniProt P06276+P22303); experiment: Selectivity ratio of IC50 for inhibition of recombinant human AchE to IC50 for inhibition of human BchE; type: protein assay
# Acetylcholinesterase = Acetylcholinesterase (Homo sapiens, UniProt P22303); experiment: Inhibition of human AChE
# Cholinesterase = Cholinesterase (Homo sapiens, UniProt P06276); experiment: Inhibition of human BChE
# [16] = Selectivity index, ratio of IC50 for cytotoxicity against African green monkey Vero cells to IC50 for antiplasmodial activity against D-sorbitol synchronized chloroquine-resistant Plasmodium falciparum W2; type: toxicity, cell-based; details: read-out: Ratio IC50
# Huh-7 = experiment: Antiproliferative activity against human Huh-7 cells assessed as reduction in cell proliferation incubated for 24 hrs by MTT assay; type: functional, cell-based; details: Huh-7, 24 h
# [17] = system: Mycobacterium tuberculosis; experiment: Antitubercular activity against Mycobacterium tuberculosis H37Rv by microplate alamar blue assay; type: functional
# HeLa [18] = experiment: Anticancer activity against human HeLa cells incubated for 48 hrs by MTT assay; type: functional, cell-based
# MCF7 [19] = experiment: Anticancer activity against human MCF7 cells incubated for 48 hrs by MTT assay; type: functional, cell-based; details: MCF7, 48 h
# HL-60 [20] = experiment: Anticancer activity against human HL-60 cells incubated for 48 hrs by MTT assay; type: functional, cell-based; details: HL-60, 48 h
# HepG2 [21] = experiment: Anticancer activity against human HepG2 cells incubated for 48 hrs by MTT assay; type: functional, cell-based; details: HepG2, 48 h
# A549 [22] = experiment: Cytotoxicity against human A549 cells incubated for 24 hrs by MTT assay; type: functional, cell-based; details: A549, 24 h
# A549 [23] = experiment: Antiproliferative activity against human A549 cells assessed as reduction in cell viability incubated for 24 hrs by MTT assay; type: functional, cell-based; details: A549, 24 h
# HeLa [24] = experiment: Antiproliferative activity against human HeLa cells incubated for 24 hrs by MTT assay; type: functional, cell-based
# SGC-7901 = experiment: Antiproliferative activity against human SGC-7901 cells incubated for 24 hrs by MTT assay; type: functional, cell-based; details: SGC-7901, 24 h
# [25] = Cytotoxicity against human L02 cells incubated for 24 hrs by MTT assay; type: toxicity, cell-based
# Escherichia coli [26] = experiment: Antibacterial activity against Escherichia coli ATCC 29213 incubated for 24 hrs by broth microdilution method; type: functional
# Staphylococcus aureus [27] = experiment: Antibacterial activity against Staphylococcus aureus ATCC 8739 incubated for 24 hrs by broth microdilution method; type: functional
# Plasmodium falciparum = experiment: Antiplasmodial activity against chloroquine sensitive Plasmodium falciparum NF54 incubated for 48 hrs by lactate dehydrogenase assay; type: functional, organism-based; details: NF54, Erythrocyte
# MCF7 [28] = experiment: Antiproliferative activity against human MCF7 cells assessed as cell growth inhibition incubated for 72 hrs by MTT assay; type: functional
# HCT-116 = experiment: Anticancer activity against human HCT-116 cells assessed as cell growth inhibition incubated for 72 hrs by MTT assay; type: functional
# NCI-H460 = experiment: Anticancer activity against human NCI-H460 cells assessed as cell growth inhibition incubated for 72 hrs by MTT assay; type: functional
# LN-229 = experiment: Anticancer activity against human LN-229 cells assessed as cell growth inhibition by MTS assay; type: functional
# CAPAN-1 = experiment: Anticancer activity against human CAPAN-1 cells assessed as cell growth inhibition by MTS assay; type: functional
# [29] = Anticancer activity against human DND41 cells assessed as cell growth inhibition incubated for 72 hrs by CellTiter96 aqueous Non-Radioactive Cell Proliferation Assay; type: functional
# HL-60 [30] = experiment: Anticancer activity against human HL-60 cells assessed as cell growth inhibition incubated for 72 hrs by CellTiter96 aqueous Non-Radioactive Cell Proliferation Assay; type: functional
# K562 = experiment: Anticancer activity against human K562 cells assessed as cell growth inhibition incubated for 72 hrs by CellTiter96 aqueous Non-Radioactive Cell Proliferation Assay; type: functional
# Z-138 = experiment: Anticancer activity against human Z138 cells assessed as cell growth inhibition incubated for 72 hrs by CellTiter96 aqueous Non-Radioactive Cell Proliferation Assay; type: functional
# HT-29 = experiment: Antiproliferative activity against human HT-29 cells assessed as reduction in cell viability incubated for 24 hrs by MTT assay; type: functional, cell-based; details: HT-29, 24 h
# MCF7 [31] = experiment: Antiproliferative activity against human MCF7 cells assessed as reduction in cell viability incubated for 24 hrs by MTT assay; type: functional, cell-based; details: MCF7, 24 h
# [32] = Antiproliferative activity against human AG01522 cells assessed as reduction in cell viability incubated for 24 hrs by MTT assay; type: functional, cell-based; details: AG01522, 24 h
# Candida albicans = experiment: Antifungal activity against Candida albicans MTCC 183 by agar streak dilution method; type: functional
# Aspergillus niger = experiment: Antifungal activity Aspergillus niger MTCC 282 by agar streak dilution method; type: organism-based
# Chain of Cholinesterase (P06276 whole entry): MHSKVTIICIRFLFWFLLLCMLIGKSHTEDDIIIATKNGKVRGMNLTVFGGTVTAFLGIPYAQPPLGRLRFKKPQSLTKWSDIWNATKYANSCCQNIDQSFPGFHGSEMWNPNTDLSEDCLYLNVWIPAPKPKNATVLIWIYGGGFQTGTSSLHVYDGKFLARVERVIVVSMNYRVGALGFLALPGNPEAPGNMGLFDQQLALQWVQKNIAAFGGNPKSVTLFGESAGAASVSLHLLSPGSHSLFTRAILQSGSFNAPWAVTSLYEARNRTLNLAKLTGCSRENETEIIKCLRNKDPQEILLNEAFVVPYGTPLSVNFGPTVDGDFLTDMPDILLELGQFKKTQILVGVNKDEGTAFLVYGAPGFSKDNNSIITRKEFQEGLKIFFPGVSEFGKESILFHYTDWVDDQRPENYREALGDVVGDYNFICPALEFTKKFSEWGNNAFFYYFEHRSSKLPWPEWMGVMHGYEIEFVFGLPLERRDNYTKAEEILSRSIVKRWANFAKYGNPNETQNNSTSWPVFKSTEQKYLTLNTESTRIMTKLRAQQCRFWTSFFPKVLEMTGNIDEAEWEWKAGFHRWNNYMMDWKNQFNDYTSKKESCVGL
# Chain of Cholinesterases; ACHE & BCHE (Homo sapiens) (P06276 whole entry, looked up): as the sequence (P06276 whole entry) above
# Chain of Cholinesterases; ACHE & BCHE (Homo sapiens) (P22303 whole entry, looked up): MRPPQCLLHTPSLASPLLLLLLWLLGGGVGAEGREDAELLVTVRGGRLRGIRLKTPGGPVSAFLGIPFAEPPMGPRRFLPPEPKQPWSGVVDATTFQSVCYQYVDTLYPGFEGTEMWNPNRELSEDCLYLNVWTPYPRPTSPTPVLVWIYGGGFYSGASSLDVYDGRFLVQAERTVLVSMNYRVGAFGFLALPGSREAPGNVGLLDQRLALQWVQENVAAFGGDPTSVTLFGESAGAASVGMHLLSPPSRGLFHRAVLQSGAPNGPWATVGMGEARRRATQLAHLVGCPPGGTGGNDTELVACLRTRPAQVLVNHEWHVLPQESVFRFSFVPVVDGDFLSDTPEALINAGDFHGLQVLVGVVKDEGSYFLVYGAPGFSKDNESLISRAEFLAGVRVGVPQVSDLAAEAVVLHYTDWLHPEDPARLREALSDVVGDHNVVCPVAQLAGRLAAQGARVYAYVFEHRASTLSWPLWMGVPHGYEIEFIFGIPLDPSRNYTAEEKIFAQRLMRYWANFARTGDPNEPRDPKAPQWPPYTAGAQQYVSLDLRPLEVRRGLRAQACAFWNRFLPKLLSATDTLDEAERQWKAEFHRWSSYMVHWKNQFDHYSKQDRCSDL
# Chain of Acetylcholinesterase (P22303 whole entry): as the sequence (P22303 whole entry, looked up) above
compound,measurement,setting,value
CCCCCCOc1ccc(/C=N/Nc2cc(C)nc3ccc(Cl)cc23)cc1,MIC,Staphylococcus aureus [1],12.5 µg/mL
same,MIC,Bacillus subtilis [2],12.5 µg/mL
same,MIC,Escherichia coli [3],6.5 µg/mL
same,MIC,Pseudomonas aeruginosa [4],12.5 µg/mL
O=[N+]([O-])c1ccc(S(=O)(=O)N2CCN(c3ccnc4cc(Cl)ccc34)CC2)c([N+](=O)[O-])c1,GI50,MDA-MB-231,3.4 µM
same,GI50,MDA-MB-468,0.7 µM
same,GI50,MCF7 [5],2.3 µM
same,GI50 at 48 h,[6],9 µM
same,GI50 at 48 h,[7],12.3 µM
COc1ccc(/C=N/NC(=O)c2ccc(Nc3ccnc4ccccc34)cc2)cc1OC,pIC50,HepG2 [8],4.90
same,pIC50,SMMC-7721,5.02
CC1(C)CC[C@]2(C(=O)OCCOCCNc3ccnc4ccc(Cl)cc34)CC[C@]3(C)C(=CC[C@@H]4[C@@]5(C)CC[C@H](O)C(C)(C)[C@@H]5CC[C@]43C)[C@@H]2C1,MIC,Bacillus subtilis [9],2500 µg/mL
same,MIC,Enterococcus faecalis,1250 µg/mL
same,MIC,[10],2500 µg/mL
same,MIC,Staphylococcus aureus [11],2500 µg/mL
same,MIC,[12],1250 µg/mL
same,MIC,Proteus vulgaris,2500 µg/mL
same,MIC,Klebsiella oxytoca,2500 µg/mL
same,MIC,Pseudomonas aeruginosa [13],2500 µg/mL
same,MIC,Pseudomonas mevalonii,1250 µg/mL
same,MIC,Escherichia coli [14],1250 µg/mL
CC(CCNCCC12CC3CC(CC(C3)C1)C2)Nc1ccnc2cc(Cl)ccc12 (configuration not stated),Ratio IC50,[15],10
COn1cc(CCNC(=S)NCCCCCNc2c3c(nc4ccccc24)CCCC3)c2ccccc21,pIC50,Acetylcholinesterase,7.15
same,pIC50,Cholinesterase,7.41
CCN(CC)c1ccc2c(c1)C(=O)N(CCC(=O)NCCNc1ccnc3cc(Cl)ccc13)C2=O,selectivity ratio,[16],> 2000
O=C(N/N=C/c1cc(O)ccc1O)c1ccc(Nc2ccnc3ccccc23)cc1,pIC50,HepG2 [8],4.63
same,pIC50,SMMC-7721,< 4.30
same,pIC50,Huh-7,4.73
O=C1c2ccc(N3CCN(CCO)CC3)cc2C(=O)N1CCCNc1ccnc2cc(Cl)ccc12,selectivity ratio,[16],> 4200
NC(=O)N/N=C(/C=C/c1ccc(Br)cc1)c1ccc(Nc2ccnc3cc(Cl)ccc23)cc1,MIC,[17],1.56 µM
S=C(NNc1ccnc2cc(Cl)ccc12)Nc1nc(Nc2ccc(Cl)cc2)nc(Nc2ccc(Cl)cc2)n1,pIC50,HeLa [18],4.49
same,pIC50,MCF7 [19],4.49
same,pIC50,HL-60 [20],4.58
same,pIC50,HepG2 [21],4.34
Cc1cccc2c(Nc3cccc4ncccc34)cc(Cl)nc12,pIC50,A549 [22],4.53
CCC[n+]1cc(C(=O)OCC)c(Nc2ccc(OCc3ccccc3)cc2)c2cc3c(cc21)OCO3,pIC50,A549 [23],5.29
same,pIC50,HeLa [24],5.12
same,pIC50,SGC-7901,4.75
same,IC50 at 24 h,[25],54.5 µM
same,MIC,Escherichia coli [26],3.12 µM
same,MIC,Staphylococcus aureus [27],3.12 µM
O=C(/C=C/c1ccc(Cl)cc1)c1ccc(S(=O)(=O)NCCCNc2ccnc3cc(Cl)ccc23)cc1,pIC50,Plasmodium falciparum,7.00
C=C(CC(=O)OC)C(=O)NCCCCNc1ccnc2cc(Cl)ccc12,GI50,MCF7 [28],0.8 µM
same,GI50,HCT-116,2 µM
same,GI50,NCI-H460,2 µM
same,GI50,LN-229,1.1 µM
same,GI50,CAPAN-1,1.3 µM
same,GI50,[29],3.1 µM
same,GI50,HL-60 [30],1.9 µM
same,GI50,K562,8.1 µM
same,GI50,Z-138,1.9 µM
O=c1cc(CCl)n(CCCNc2ccnc3cc(Cl)ccc23)cc1OCc1ccccc1,pIC50,A549 [23],6.09
same,pIC50,HT-29,5.85
same,pIC50,MCF7 [31],5.90
same,pIC50,[32],5.54
CCCCCOc1ccc(/C=N/Nc2cc(C)nc3ccc(Cl)cc23)cc1,MIC,Candida albicans,25 µg/mL
same,MIC,Aspergillus niger,12.5 µg/mL
